Here are results for 73 compounds from PubChem BioAssay AID179 (DTP/NCI, 2004).

pEC50, pIC50: −log10 of the molar value. Active and inactive are the calls of the source.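 The calls were made as follows: active = compounds giving half or more protection of infected cells from virus-caused growth loss, again on retest; inactive = the rest.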

The assay concerns CEM cells HIV-1 protection, formazan growth assay. Briefly: NCI AIDS Antiviral Assay. Conditions: for pIC50: measured here: growth of uninfected CEM cells. In outline: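 Screen of anti-HIV-1 activity in human CEM cells using a formazan-based growth measurement at five drug concentrations. Hits with 50% or greater protection were repeated, and confirmation required reproducible complete protection.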

For `CCOc1ccc(N=NC2C(=O)N(C(=O)CC(=O)Nc3ccccc3)N=C2C)cc1` (stereo unspecified), the pEC50 (in general, −log10 of the EC50, conventionally taken in molar units) was less than 3.70 and the pIC50 (commonly the IC50 on a negative log10 scale, so that one unit is a factor of ten) was 4.69.
The matching figures for `O=c1ccn([C@@H]2O[C@@H]3COC(c4c(F)cccc4Cl)N(O)[C@@H]3C2O)c(=O)[nH]1` (stereo partly specified): less than 3.70 and less than 3.70.
The matching figures for `CC(=O)Oc1c2oc3ccc(Cl)cc3c(=O)c2c(O)c2ccsc12`: less than 3.70 and less than 3.70.
The matching figures for `Cc1cc(Cl)ccc1NC(=O)CC/C(CC(=O)C(C)C)=N\NC(=O)C[n+]1ccccc1`: less than 4.79 and less than 4.79.
For `O=S1(=O)OC2(CCCCC2)c2ccccc21`, the pEC50 was less than 3.68 and the pIC50 is less than 3.68.
On to `CON(C)C(=O)C(Cc1ccccc1)NC(=O)OCc1ccccc1` (stereo unspecified), for which the pEC50 was less than 3.70 and the pIC50 was 3.74.
For `CC(O)CN1c2ccccc2Sc2ccccc21` (stereo unspecified), in that order: less than 3.70 and less than 3.70.
For `O=C1c2ccccc2C(=O)N1Cc1ccccc1`, in that order: less than 3.70 and less than 3.70.
With `O=C(Nc1cc2c(oc1=O)CCCCC2)c1cnccn1`, the pEC50 is less than 4.00 and the pIC50 is less than 4.00.
In the case of `C=C1C(=O)O[C@H]2[C@H]3O[C@@H](C[C@@H]12)[C@](C)(O)CC[C@@H]1O[C@@]1(C)CCC[C@H]3C`, the pEC50 is less than 3.70 and the pIC50 was 5.09.
For `CN1/C(=C\N=O)C(C)(C)N(O)C1(C)C`, the pEC50 is less than 3.70 and the pIC50 is less than 3.70.
Take `O=c1c2ccccc2c2cc3ccc4c(=O)c5ccccc5c5cc6ccc1c2c6c3c45`: the pEC50 is less than 3.70 and the pIC50 is less than 3.70.
Consider `Cc1ccc(S(=O)(=O)Nn2c(C)cc3ccc(S(=O)(=O)Nc4ccccc4[N+](=O)[O-])cc3c2=O)cc1`, for which the pEC50 is less than 3.70 and the pIC50 is 4.99.
In the case of `CC[C@H]1CN2CCc3cc(OC)c(OC)cc3[C@@H]2C[C@@H]1C[C@@H]1c2cc(OC)c(OC)cc2CCN1N=O`, the result was inactive.
On the same count and under the same terms, with `CCn1cc(C(=O)O)c(=O)c2ccc(-c3ccncc3)cc21` the entry was “inactive”.
Consider `Cn1cc2c(n1)c(N/N=C/c1ccccc1)nn1nnnc21`, for which the pEC50 was less than 4.05 and the pIC50 was less than 4.05.
For the compound `Clc1c(Cl)c(Cl)c2c(nnn2C2CCCO2)c1Cl` (stereo unspecified), the pEC50 was less than 3.70 and the pIC50 is 4.48.
Consider `CC1(C)CCc2cc3c(cc2O1)OCCC3O` (stereo unspecified), for which the result was inactive.
Same read-out and setting: the same measure for `N#Cc1ccc2oc3ccc(C#N)cc3c(=O)c2c1`: “inactive”.
For the compound `CC(=O)Nc1ccc(N)c2cc(S(=O)(=O)O)ccc12`, the pEC50 is less than 3.70 and the pIC50 is less than 3.70.
On to `CCOC(=O)C(CCSC)(CCSC)C(=O)OCC`, for which the pEC50 was less than 3.70 and the pIC50 was less than 3.70.
As for `Nc1cc([As](=O)(O)O)ccn1`, the pEC50 was less than 3.70 and the pIC50 was less than 3.70.
Turning to `COC(OC(CO)C(O)S(=O)(=O)O)C(O)S(=O)(=O)O` (stereo unspecified), the pEC50 is less than 3.70 and the pIC50 is 4.49.
The matching figures for `CC1=C2C(c3ccccc3)(c3ccccc3)C3C=CC2(C=N3)N(C(=O)NC2CCCCC2)C1=O` (stereo unspecified): less than 4.94 and less than 4.94.
The matching figures for `O=c1[nH]nc(Cc2ccccc2)n1/N=C/c1ccc([N+](=O)[O-])cc1`: less than 3.70 and less than 3.70.
The matching figures for `COC(=O)c1nc(-c2nc(CCNC(=O)OC(C)(C)C)sc2Cl)sc1Cl`: less than 5.37 and less than 5.37.
Turning to `Cc1cccc(CC(Cc2ccc(C)cc2C(=O)O)C(=O)O)c1` (stereo unspecified), the pEC50 was less than 3.70 and the pIC50 was less than 3.70.
In the case of `COC(=O)c1ccc(C(=O)OC)c2nc3cc(C)ccc3nc12`, the pEC50 was less than 3.66 and the pIC50 is less than 3.66.
Regarding `COC(=O)OCC1C=CC(n2cnc3c(Cl)ncnc32)CC1` (stereo unspecified), the pEC50 was less than 3.70 and the pIC50 was 4.94.
For `C=C1CCc2ccccc2C1=O`, in that order: less than 3.70 and 4.50.
The matching figures for `Cc1cc(N(CCC#N)CCC#N)ccc1/C(N=Nc1cccc(Cl)c1)=N/NC(=O)c1cc(Cl)ccc1O`: less than 3.70 and 4.93.
The matching figures for `CC(C)(C)[Si](C)(C)OCC1OC(n2ccc(=O)[nH]c2=O)C(O[Si](C)(C)C(C)(C)C)[C@@]12N[C@H](C(N)=O)CS2=O` (stereo partly specified): less than 3.70 and 4.91.
Regarding `O=C(C[n+]1ccncc1)c1ccc2c(c1)CCCC2`, the pEC50 is 7.20 and the pIC50 is less than 3.70.
The matching figures for `COc1nc2c(c(O)c(C)c(=O)n2OC2OC(COC(C)=O)C(OC(C)=O)C(OC(C)=O)C2OC(C)=O)c(=O)n1C` (stereo unspecified): less than 4.21 and less than 4.21.
For `COC(=O)C1CC2(C)C=CC1N(C(=O)OCc1ccccc1)C2` (stereo unspecified), in that order: 4.20 and 3.99.
The matching figures for `Cc1cccc(C)c1NC(=O)C(C#N)C1=C(Cl)C(=O)c2ccccc2C1=O` (stereo unspecified): less than 4.58 and 5.06.
Turning to `CC(=O)O[C@H]1CC2CCCC2C2C(=O)OC(=O)C21` (stereo partly specified), the outcome was active.
As to `COc1ccc(N2C(Cl)C(=O)C2c2c[nH]c3ccccc23)cc1` (stereo unspecified), the pEC50 was less than 3.82 and the pIC50 is 3.88.
For `O=C(NC1C(=O)NNC1c1cccc([N+](=O)[O-])c1)c1ccccc1` (stereo unspecified), in that order: less than 3.54 and less than 3.54.
For `OCC1(C(F)(F)F)OC(n2cncn2)CC1O` (stereo unspecified), in that order: less than 3.70 and less than 3.70.
As to `Cn1c(=O)c2/c(n(C)c1=O)=N\C=c1\c(=O)n(C)c(=O)n(C)\c1=N\C=2`, the pEC50 is less than 3.74 and the pIC50 was less than 3.74.
`O=c1[nH]c2cc(Cl)ccc2nc1/C(=N\O)C(O)c1ccc(Cl)cc1Cl` (stereo unspecified): the pEC50 was less than 4.13 and the pIC50 was less than 4.13.
With `Cc1nc(C)c2c(n1)Oc1ccc3ccccc3c1C2`, the pEC50 was less than 4.31 and the pIC50 is less than 4.31.
As to `C=CCC12CCC(=O)[C@@]1(C)CC=C(O)C2=O` (stereo partly specified), the result was inactive.
`Nn1c(Sc2nc3ccccc3c(=O)n2N)nc2ccccc2c1=O`: the pEC50 was less than 3.70 and the pIC50 was 5.42.
Consider `CC(=O)SC(SC(C)=O)SC(C)=O`, for which the pEC50 is less than 3.68 and the pIC50 is 3.81.
`c1ccc2c(c1)CCN1CCc3ccccc3C1C2` (stereo unspecified): the pEC50 is less than 3.70 and the pIC50 is 4.44.
For `O=C(OCCc1ccccc1)c1cc2ccc(O)c(O)c2cn1`, in that order: less than 5.08 and less than 5.08.
Consider `COc1ccc2c[n+](C)c3c4cc(OC)c(OC)cc4ccc3c2c1`, for which the outcome was inactive.
With `COC1/C=C\OC2(C)Oc3c(C)c(O)c4c(O)c(c(/C=N\N(C)C)c(O)c4c3C2=O)NC(=O)/C(C)=C\C=C/C(C)C(O)C(C)C(O)C(C)C(OC(C)=O)C1C` (stereo unspecified), the pEC50 was less than 3.70 and the pIC50 was 4.89.
For `CCCCC(=S)SSC(C)(C)C`, in that order: less than 3.70 and 4.26.
The matching figures for `O=C(CC1C(=O)Nc2ccccc2S1=O)Nc1ccccc1` (stereo unspecified): less than 4.64 and less than 4.64.
For `O=C(NC(=Nc1ccccc1)SCSC(=Nc1ccccc1)NC(=O)c1ccco1)c1ccco1`, in that order: less than 4.84 and less than 4.84.
Consider `CCOC1(OCC)C([N+](=O)[O-])=CC(=[N+]([O-])O)C=C1[N+](=O)[O-]`, for which the pEC50 was less than 3.14 and the pIC50 was 3.69.
For `COc1ccc(NC(=S)Nc2ccccn2)cc1`, in that order: less than 3.70 and less than 3.70.
For `CCOC1(OCC)CS(=O)(=O)C1c1ccc([N+](=O)[O-])cc1` (stereo unspecified), in that order: less than 3.70 and less than 3.70.
The matching figures for `Cc1cc(C)nc(NS(=O)(=O)c2ccc(Nc3c4ccccc4nc4ccc(C(=O)Nc5ccc(S(N)(=O)=O)cc5)cc34)cc2)n1`: less than 3.70 and 4.05.
As for `CCOC(=O)CSc1nnc(C(Sc2nc(-c3ccccc3)c(-c3ccccc3)[nH]2)C(C)C)n1-c1ccccc1` (stereo unspecified), the pEC50 was less than 4.62 and the pIC50 was less than 4.62.
Consider `CC1Cn2c(Cc3ccccc3)nnc2S1` (stereo unspecified), for which the outcome was inactive.
`CN(C)CCn1c(=O)c2ccc(NCCNCCO)c3c(=O)c4cc(O)ccc4n(c1=O)c23`: the pEC50 was less than 5.70 and the pIC50 is 6.39.
`Cc1cc(N(CCC#N)CCC#N)ccc1/C(N=Nc1ccc(Cl)cc1)=N\NC(=O)c1cc(Cl)ccc1O`: the pEC50 was less than 3.70 and the pIC50 was 3.99.
Consider `CC(C)n1nnnc1-c1ccccc1`, for which the pEC50 is less than 3.70 and the pIC50 is less than 3.70.
As to `CCCCC(N)CSSCC(N)CCCC` (stereo unspecified), the pEC50 is less than 3.13 and the pIC50 is 4.67.
For `CCCCCCCCCCCOCCC1C(C(C)OCCN2CCCC2)OC2OC(C)(C)OC21` (stereo unspecified), in that order: less than 3.70 and 5.04.
The matching figures for `COc1cc(O)c2c(c1)cc(O)c1c(=O)cc(C)oc12`: less than 3.71 and 4.98.
The matching figures for `Cc1cc(C)c(S(=O)(=O)N(CCCCN)OCCCN)c(C)c1`: less than 3.70 and 4.55.
For `C=CCOc1ccc(C2C(C(=O)OCC)C(=O)CC(C)(O)C2C(=O)OCC)cc1OC` (stereo unspecified), the pEC50 was less than 3.70 and the pIC50 was less than 3.70.
For `N#CC(C#N)N=Cc1ccncc1`, the pEC50 was less than 3.70 and the pIC50 was 3.77.
For `NC(N)=NCCC(O)(P(=O)(O)O)P(=O)(O)O`, in that order: less than 3.70 and less than 3.70.
For `COc1cccc(/C=N/[N-]C(N)=O)c1[O-].[Ni+2].[OH3+].c1ccc(-c2ccccn2)nc1`, the result was inactive.
For `CC(C)(C)OC(=O)C(C#N)C(=O)c1ccc(C(=O)O)[nH]1` (stereo unspecified), the pEC50 was less than 3.70 and the pIC50 was 4.63.
On to `NNC(=O)C(=O)N/N=C(/CCC(=O)NCCc1ccccc1)CC(=O)c1ccccc1`, for which the result was inactive.
Turning to `COC1Sc2ccccc2C(=O)N2CCCC12` (stereo unspecified), the pEC50 is less than 3.70 and the pIC50 was less than 3.70.
